Source: PubChem BioAssay (NCI)
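96-well plates; 48 h exposure; 5 concentrations. Endpoints by linear interpolation between flanking doses. Not reached: highest tested concentration assigned. At the GI50, growth is halved. TGI marks complete inhibition of growth.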

Columns and labels:
Experiment in all cases: NCI-60 cell line screen, 48 h
[1] = system: 786-0 renal
[2] = system: A498 renal
[3] = system: A549 NSCLC
[4] = system: ACHN renal
[5] = system: BT-549 breast
[6] = system: CAKI-1 renal
[7] = system: COLO 205 colon
[8] = system: DU-145 prostate
[9] = system: EKVX NSCLC
[10] = system: HCC-2998 colon
[11] = system: HCT-116 colon
[12] = system: HCT-15 colon
[13] = system: HOP-62 NSCLC
[14] = system: HOP-92 NSCLC
[15] = system: HS 578T breast
[16] = system: HT29 colon
[17] = system: IGROV1 ovarian
[18] = system: K-562 leukemia
[19] = system: KM12 colon
[20] = system: LOX IMVI melanoma
[21] = system: M14 melanoma
[22] = system: MALME-3M melanoma
[23] = system: MCF7 breast
[24] = system: MDA-MB-231 breast
[25] = system: MDA-MB-435
[26] = system: MOLT-4 leukemia
[27] = system: NCI-H226 lung
[28] = system: NCI-H23 lung
[29] = system: NCI-H460 lung
[30] = system: NCI-H522 lung
[31] = system: NCI/ADR-RES ovarian
[32] = system: OVCAR-3 ovarian
[33] = system: OVCAR-4 ovarian
[34] = system: OVCAR-5 ovarian
[35] = system: OVCAR-8 ovarian
[36] = system: PC-3 prostate
[37] = system: RPMI-8226 leukemia
[38] = system: RXF 393 renal
[39] = system: SF-268 CNS
[40] = system: SF-295 CNS
[41] = system: SF-539 CNS
[42] = system: SK-MEL-2 melanoma
[43] = system: SK-MEL-28 melanoma
[44] = system: SK-MEL-5 melanoma
[45] = system: SK-OV-3 ovarian
[46] = system: SN12C renal
[47] = system: SNB-19 CNS
[48] = system: SR leukemia
[49] = system: SW-620 colon
[50] = system: T-47D breast
[51] = system: TK-10 renal
[52] = system: U251 CNS
[53] = system: UACC-257 melanoma
[54] = system: UACC-62 melanoma
[55] = system: UO-31 renal

Cn1ccc2c1SSSSS2
GI50 [1]: 26.4 µM
TGI [1]: 58.7 µM
GI50 [2]: > 100 µM
TGI [2]: > 100 µM
GI50 [3]: 52.2 µM
TGI [3]: > 100 µM
GI50 [4]: 28.4 µM
TGI [4]: 73.3 µM
GI50 [5]: 61.4 µM
TGI [5]: > 100 µM
GI50 [6]: 22.4 µM
TGI [6]: 45.7 µM
GI50 [7]: 15.1 µM
TGI [7]: 41.6 µM
GI50 [8]: 31.7 µM
TGI [8]: > 100 µM
GI50 [9]: 44.5 µM
TGI [9]: > 100 µM
GI50 [10]: 17.1 µM
TGI [10]: 33 µM
GI50 [11]: 17.4 µM
TGI [11]: 31.1 µM
GI50 [12]: 33.8 µM
TGI [12]: > 100 µM
GI50 [13]: > 100 µM
TGI [13]: > 100 µM
GI50 [14]: 2.88 µM
TGI [14]: 7.66 µM
GI50 [15]: 28.8 µM
TGI [15]: 71.2 µM
GI50 [16]: 24.1 µM
TGI [16]: 59.6 µM
GI50 [17]: 35.9 µM
TGI [17]: > 100 µM
GI50 [18]: 23.2 µM
TGI [18]: > 100 µM
GI50 [19]: 17 µM
TGI [19]: 35.8 µM
GI50 [20]: 24.8 µM
TGI [20]: 71 µM
GI50 [21]: 18 µM
TGI [21]: 35.6 µM
GI50 [22]: 11.2 µM
TGI [22]: 41.6 µM
GI50 [23]: 17.4 µM
TGI [23]: 43.2 µM
GI50 [24]: 17.9 µM
TGI [24]: 45.8 µM
GI50 [25]: 23.7 µM
TGI [25]: 53.8 µM
GI50 [26]: 28.5 µM
TGI [26]: > 100 µM
GI50 [27]: 21.5 µM
TGI [27]: 51 µM
GI50 [28]: 18.9 µM
TGI [28]: 36.4 µM
GI50 [29]: 47.6 µM
TGI [29]: > 100 µM
GI50 [30]: 32.1 µM
TGI [30]: > 100 µM
GI50 [31]: 22.8 µM
TGI [31]: 54.7 µM
GI50 [32]: 16.5 µM
TGI [32]: 36.1 µM
GI50 [33]: 21.8 µM
TGI [33]: 56 µM
GI50 [34]: 23 µM
TGI [34]: 47.1 µM
GI50 [35]: 96.7 µM
TGI [35]: > 100 µM
GI50 [36]: 25.3 µM
TGI [36]: 66.4 µM
GI50 [37]: 20.9 µM
TGI [37]: 52.9 µM
GI50 [38]: 28.9 µM
TGI [38]: > 100 µM
GI50 [39]: 30.8 µM
TGI [39]: > 100 µM
GI50 [40]: 41.3 µM
TGI [40]: > 100 µM
GI50 [41]: 25.6 µM
TGI [41]: 69.8 µM
GI50 [42]: 49.6 µM
TGI [42]: > 100 µM
GI50 [43]: 21.1 µM
TGI [43]: 47.5 µM
GI50 [44]: 16.5 µM
TGI [44]: 35.9 µM
GI50 [45]: 37.5 µM
TGI [45]: > 100 µM
GI50 [46]: 21 µM
TGI [46]: 42 µM
GI50 [47]: 36 µM
TGI [47]: > 100 µM
GI50 [48]: 4.6 µM
TGI [48]: 33.8 µM
GI50 [49]: 29.1 µM
TGI [49]: 84.7 µM
GI50 [50]: 11.8 µM
TGI [50]: 47.6 µM
GI50 [51]: 27.1 µM
TGI [51]: 68.9 µM
GI50 [52]: 40 µM
TGI [52]: > 100 µM
GI50 [53]: 52.3 µM
TGI [53]: > 100 µM
GI50 [54]: 17.3 µM
TGI [54]: 34.6 µM
GI50 [55]: 36 µM
TGI [55]: > 100 µM
